Assay results as given in ChEMBL document CHEMBL1201862, “PubChem BioAssay data set” (2004).
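96-well plates; 48 h exposure; 5 concentrations. Endpoints by linear interpolation between flanking doses. Not reached: highest tested concentration assigned. Here, GI50 denotes the concentration required for 50% inhibition of growth.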 Activity calls are given as the source filed them. Rule as the data show it: active = GI50 up to about 1.1 µM and inactive = higher.

Columns and labels:
Experiment in all cases: NCI tumour cell line growth inhibition, 48 h
UACC-62 = test system: UACC-62
BT-549 = test system: BT-549
K562 = test system: K562
LOX IMVI = test system: LOX IMVI
NCI-H23 = test system: NCI-H23
MDA-MB-231 = test system: MDA-MB-231
MDA-N = test system: MDA-N
HL-60 = test system: HL-60
HOP-92 = test system: HOP-92
IGROV-1 = test system: IGROV-1
OVCAR-4 = test system: OVCAR-4
NCI-H226 = test system: NCI-H226
SR = test system: SR
SN12C = test system: SN12C
NCI-H460 = test system: NCI-H460
A498 = test system: A498
KM12 = test system: KM12
OVCAR-5 = test system: OVCAR-5
RPMI-8226 = test system: RPMI-8226
UO-31 = test system: UO-31

Compound: NC1(P(=O)(O)O)CCCCC1
- GI50 (UACC-62): > 100 µM (inactive)
- GI50 (BT-549): > 100 µM (inactive)
- GI50 (K562): > 100 µM (inactive)
- GI50 (LOX IMVI): > 100 µM (inactive)
- GI50 (NCI-H23): > 100 µM (inactive)
- GI50 (MDA-MB-231): > 100 µM (inactive)
- GI50 (MDA-N): > 100 µM (inactive)
- GI50 (HL-60): < 0.01 µM (active)
- GI50 (HOP-92): > 100 µM (inactive)
- GI50 (IGROV-1): > 100 µM (inactive)
- GI50 (OVCAR-4): > 100 µM (inactive)
- GI50 (NCI-H226): > 100 µM (inactive)
- GI50 (SR): > 100 µM (inactive)
- GI50 (SN12C): > 100 µM (inactive)
- GI50 (NCI-H460): > 100 µM (inactive)
- GI50 (A498): > 100 µM (inactive)
- GI50 (KM12): > 100 µM (inactive)
- GI50 (OVCAR-5): > 100 µM (inactive)
- GI50 (RPMI-8226): > 100 µM (inactive)

Compound: O=C(Cn1ccc(=O)[nH]c1=O)Nc1ccc(C(=O)O)c(O)c1
- GI50 (UACC-62): > 100 µM (inactive)
- GI50 (BT-549): > 100 µM (inactive)
- GI50 (K562): > 100 µM (inactive)
- GI50 (UO-31): > 100 µM (inactive)
- GI50 (LOX IMVI): > 100 µM (inactive)
- GI50 (NCI-H23): > 100 µM (inactive)
- GI50 (MDA-MB-231): > 100 µM (inactive)
- GI50 (MDA-N): > 100 µM (inactive)
- GI50 (HL-60): > 100 µM (inactive)
- GI50 (HOP-92): > 100 µM (inactive)
- GI50 (IGROV-1): > 100 µM (inactive)
- GI50 (OVCAR-4): > 100 µM (inactive)
- GI50 (NCI-H226): > 100 µM (inactive)
- GI50 (SR): > 100 µM (inactive)
- GI50 (SN12C): > 100 µM (inactive)
- GI50 (NCI-H460): > 100 µM (inactive)
- GI50 (A498): > 100 µM (inactive)
- GI50 (KM12): > 100 µM (inactive)
- GI50 (OVCAR-5): > 100 µM (inactive)
- GI50 (RPMI-8226): > 100 µM (inactive)

Compound: Cc1nn(-c2ccccc2)c2c1CC(=O)Nc1ccccc1-2
- GI50 (UACC-62): 0.521 µM (active)
- GI50 (BT-549): 0.687 µM (active)
- GI50 (K562): 0.412 µM (active)
- GI50 (UO-31): 2.94 µM (inactive)
- GI50 (LOX IMVI): 0.507 µM (active)
- GI50 (NCI-H23): 1.6 µM (inactive)
- GI50 (MDA-MB-231): 1.48 µM (inactive)
- GI50 (MDA-N): 0.187 µM (active)
- GI50 (HL-60): 0.236 µM (active)
- GI50 (HOP-92): 4.18 µM (inactive)
- GI50 (IGROV-1): 1.6 µM (inactive)
- GI50 (OVCAR-4): 18.5 µM (inactive)
- GI50 (NCI-H226): 5.01 µM (inactive)
- GI50 (SR): 0.269 µM (active)
- GI50 (NCI-H460): 0.521 µM (active)
- GI50 (A498): 1.59 µM (inactive)
- GI50 (KM12): 0.571 µM (active)
- GI50 (OVCAR-5): 4.82 µM (inactive)
- GI50 (RPMI-8226): 0.484 µM (active)

Compound: COc1ccc(CNc2nc3cc(C(F)(F)F)ccc3nc2C(=O)O)cc1OC
- GI50 (UACC-62): 20.5 µM (inactive)
- GI50 (BT-549): 41.2 µM (inactive)
- GI50 (K562): 24.4 µM (inactive)
- GI50 (UO-31): 28.3 µM (inactive)
- GI50 (LOX IMVI): 33.7 µM (inactive)
- GI50 (NCI-H23): 33.4 µM (inactive)
- GI50 (MDA-MB-231): 32.5 µM (inactive)
- GI50 (MDA-N): 36.5 µM (inactive)
- GI50 (HOP-92): 27.2 µM (inactive)
- GI50 (IGROV-1): 12.2 µM (inactive)
- GI50 (OVCAR-4): 48.2 µM (inactive)
- GI50 (NCI-H226): 64.1 µM (inactive)
- GI50 (SR): 23.9 µM (inactive)
- GI50 (SN12C): 26.8 µM (inactive)
- GI50 (NCI-H460): 36.6 µM (inactive)
- GI50 (A498): 27.5 µM (inactive)
- GI50 (KM12): 32.1 µM (inactive)
- GI50 (OVCAR-5): 46 µM (inactive)
- GI50 (RPMI-8226): 28.1 µM (inactive)

Compound: Cc1c(CCOC=O)c(=O)[nH]c2nncn12
- GI50 (UACC-62): > 100 µM (inactive)
- GI50 (BT-549): > 100 µM (inactive)
- GI50 (K562): > 100 µM (inactive)
- GI50 (UO-31): > 100 µM (inactive)
- GI50 (LOX IMVI): > 100 µM (inactive)
- GI50 (NCI-H23): > 100 µM (inactive)
- GI50 (MDA-MB-231): > 100 µM (inactive)
- GI50 (MDA-N): > 100 µM (inactive)
- GI50 (HL-60): > 100 µM (inactive)
- GI50 (HOP-92): > 100 µM (inactive)
- GI50 (IGROV-1): > 100 µM (inactive)
- GI50 (OVCAR-4): > 100 µM (inactive)
- GI50 (NCI-H226): > 100 µM (inactive)
- GI50 (SR): > 100 µM (inactive)
- GI50 (SN12C): > 100 µM (inactive)
- GI50 (NCI-H460): > 100 µM (inactive)
- GI50 (A498): > 100 µM (inactive)
- GI50 (KM12): > 100 µM (inactive)
- GI50 (OVCAR-5): > 100 µM (inactive)
- GI50 (RPMI-8226): > 100 µM (inactive)

Compound: N=c1oc2ccc([N+](=O)[O-])cc2cc1C(=O)Nc1ccccn1
- GI50 (UACC-62): 34.2 µM (inactive)
- GI50 (BT-549): 48.4 µM (inactive)
- GI50 (K562): > 100 µM (inactive)
- GI50 (LOX IMVI): 33.5 µM (inactive)
- GI50 (NCI-H23): 41.3 µM (inactive)
- GI50 (MDA-MB-231): 21.6 µM (inactive)
- GI50 (MDA-N): 49.2 µM (inactive)
- GI50 (HL-60): 49.4 µM (inactive)
- GI50 (HOP-92): 71.9 µM (inactive)
- GI50 (IGROV-1): 31.7 µM (inactive)
- GI50 (OVCAR-4): 90.8 µM (inactive)
- GI50 (NCI-H226): 71.9 µM (inactive)
- GI50 (SR): 58.1 µM (inactive)
- GI50 (SN12C): 72.6 µM (inactive)
- GI50 (NCI-H460): 69 µM (inactive)
- GI50 (A498): > 100 µM (inactive)
- GI50 (KM12): 34.3 µM (inactive)
- GI50 (OVCAR-5): > 100 µM (inactive)
- GI50 (RPMI-8226): 54.2 µM (inactive)

Compound: O=C1c2sccc2C(=O)c2c(CO)csc21
- GI50 (UACC-62): 2.52 µM (inactive)
- GI50 (BT-549): 3.59 µM (inactive)
- GI50 (K562): 7.01 µM (inactive)
- GI50 (UO-31): 7.76 µM (inactive)
- GI50 (LOX IMVI): 2.88 µM (inactive)
- GI50 (NCI-H23): 2.07 µM (inactive)
- GI50 (MDA-MB-231): 17.2 µM (inactive)
- GI50 (MDA-N): 1.72 µM (inactive)
- GI50 (HL-60): 1.29 µM (inactive)
- GI50 (HOP-92): 7.5 µM (inactive)
- GI50 (IGROV-1): 4.03 µM (inactive)
- GI50 (OVCAR-4): 2.16 µM (inactive)
- GI50 (NCI-H226): 4.82 µM (inactive)
- GI50 (SR): 3.42 µM (inactive)
- GI50 (SN12C): 6.46 µM (inactive)
- GI50 (NCI-H460): 2.25 µM (inactive)
- GI50 (A498): 13.7 µM (inactive)
- GI50 (KM12): 5.02 µM (inactive)
- GI50 (OVCAR-5): 21.2 µM (inactive)
- GI50 (RPMI-8226): 5.26 µM (inactive)

Compound: COc1ccc(N2C(=O)CC(=O)N(C(=O)CCCCCCCCC(=O)N3C(=O)CC(=O)N(c4ccc(OC)cc4)C3=S)C2=S)cc1
- GI50 (UACC-62): > 100 µM (inactive)
- GI50 (BT-549): 33.9 µM (inactive)
- GI50 (K562): 44.3 µM (inactive)
- GI50 (UO-31): 79.6 µM (inactive)
- GI50 (LOX IMVI): 78.3 µM (inactive)
- GI50 (NCI-H23): > 100 µM (inactive)
- GI50 (MDA-MB-231): > 100 µM (inactive)
- GI50 (MDA-N): 57.4 µM (inactive)
- GI50 (HL-60): 95.9 µM (inactive)
- GI50 (HOP-92): > 100 µM (inactive)
- GI50 (OVCAR-4): > 100 µM (inactive)
- GI50 (NCI-H226): > 100 µM (inactive)
- GI50 (SR): 39.4 µM (inactive)
- GI50 (SN12C): > 100 µM (inactive)
- GI50 (NCI-H460): > 100 µM (inactive)
- GI50 (A498): > 100 µM (inactive)
- GI50 (KM12): 79.6 µM (inactive)
- GI50 (OVCAR-5): > 100 µM (inactive)
- GI50 (RPMI-8226): 44 µM (inactive)

Compound: Cc1nn(-c2ccccc2)c2c1C(c1ccc(Cl)cc1)NC(=S)N2 (stereo not given)
- GI50 (UACC-62): 22.3 µM (inactive)
- GI50 (BT-549): 25.9 µM (inactive)
- GI50 (K562): 36.1 µM (inactive)
- GI50 (UO-31): 15 µM (inactive)
- GI50 (LOX IMVI): 16.3 µM (inactive)
- GI50 (NCI-H23): 18.9 µM (inactive)
- GI50 (MDA-MB-231): 16.5 µM (inactive)
- GI50 (MDA-N): 29.4 µM (inactive)
- GI50 (HL-60): 31.9 µM (inactive)
- GI50 (HOP-92): 7.18 µM (inactive)
- GI50 (IGROV-1): 12.6 µM (inactive)
- GI50 (OVCAR-4): 54.5 µM (inactive)
- GI50 (NCI-H226): 25.9 µM (inactive)
- GI50 (SR): 36.6 µM (inactive)
- GI50 (SN12C): 19.1 µM (inactive)
- GI50 (NCI-H460): 23 µM (inactive)
- GI50 (A498): 23.1 µM (inactive)
- GI50 (KM12): 23.1 µM (inactive)
- GI50 (OVCAR-5): 27.5 µM (inactive)
- GI50 (RPMI-8226): 19.1 µM (inactive)

Compound: COc1ccc(/C=C/C(=O)/C=C/c2ccc(OC)cc2)cc1
- GI50 (UACC-62): > 100 µM (inactive)
- GI50 (BT-549): 29.4 µM (inactive)
- GI50 (K562): 31.6 µM (inactive)
- GI50 (UO-31): > 100 µM (inactive)
- GI50 (LOX IMVI): 40.4 µM (inactive)
- GI50 (NCI-H23): > 100 µM (inactive)
- GI50 (MDA-MB-231): 89.1 µM (inactive)
- GI50 (MDA-N): 19 µM (inactive)
- GI50 (HL-60): 20 µM (inactive)
- GI50 (HOP-92): 32.5 µM (inactive)
- GI50 (IGROV-1): 45.6 µM (inactive)
- GI50 (OVCAR-4): 43.5 µM (inactive)
- GI50 (NCI-H226): 22.4 µM (inactive)
- GI50 (SR): 22.5 µM (inactive)
- GI50 (SN12C): > 100 µM (inactive)
- GI50 (NCI-H460): > 100 µM (inactive)
- GI50 (A498): > 100 µM (inactive)
- GI50 (KM12): 24 µM (inactive)
- GI50 (OVCAR-5): > 100 µM (inactive)
- GI50 (RPMI-8226): 5.01 µM (inactive)
